Source: ChEMBL document CHEMBL3885861, “Open TG-GATES”

Species on record: Rattus norvegicus
Experiment: Open TG-GATES - Regimen: Single
Assay type: toxicity, organism-based, Sprague-Dawley
Design: regimen Single, gender Male, age 6 weeks
Conditions: in vivo, po, 300 mg/kg, route gavage, dose level Middle; for APTT / Bas / Eos / Fbg / Hb / Ht / Lym / MCH / MCHC / MCV / Mono / Neu / PT / Plat / RBC / Ret / WBC: tissue Blood; for KIDNEY_L / KIDNEY_R / KIDNEY_TOTAL: tissue Kidney; for LIVER: tissue Liver; for A/G / ALP / ALT / AST / BUN / CRE / Ca / Cl / DBIL / GLC / IP / K / LDH / Na / PL / RALB / TBIL / TC / TG / TP / gamma-GTP: tissue Plasma

CCOC(=O)CCC(=O)O[C@H]1[C@H](O[C@@H]2[C@@H](C)[C@H](O[C@H]3C[C@@](C)(OC)[C@@H](O)[C@H](C)O3)[C@@H](C)C(=O)O[C@H](CC)[C@@](C)(O)[C@H](O)[C@@H](C)C(=O)[C@H](C)C[C@@]2(C)O)O[C@H](C)C[C@@H]1N(C)C [ERYTHROMYCIN ETHYLSUCCINATE]
TERMINAL_BW (3 h): 220.4 g | APTT (3 h): 21.7 s | Bas (3 h): 0% | Eos (3 h): 1% | Fbg (3 h): 294.4 mg/dL | Hb (3 h): 12.8 g/dL | Ht (3 h): 38.6% | Lym (3 h): 75.4% | MCH (3 h): 21.2 pg | MCHC (3 h): 33.2% | MCV (3 h): 63.8 fL | Mono (3 h): 2.6% | Neu (3 h): 19.8% | PT (3 h): 15.7 s | Plat (3 h): 123.6 x10_4/uL | RBC (3 h): 606.2 x10_4/ul | Ret (3 h): 7.9% | WBC (3 h): 80.1 x10_2/uL | KIDNEY_L (3 h): 1 g | KIDNEY_R (3 h): 1 g | KIDNEY_TOTAL (3 h): 2.1 g | LIVER (3 h): 10 g | A/G (3 h): 1.2 | ALP (3 h): 1689.6 IU/L | ALT (3 h): 42.4 IU/L | AST (3 h): 74.2 IU/L | BUN (3 h): 11.6 mg/dL | CRE (3 h): 0.2 mg/dL | Ca (3 h): 10.5 mg/dL | Cl (3 h): 103.8 meq/L | DBIL (3 h): 0.004 mg/dL | GLC (3 h): 179 mg/dL | IP (3 h): 9.1 mg/dL | K (3 h): 4.1 meq/L | LDH (3 h): 141 IU/L | Na (3 h): 138.6 meq/L | PL (3 h): 149 mg/dL | RALB (3 h): 2.9 g/dL | TBIL (3 h): 0.026 mg/dL | TC (3 h): 76.4 mg/dL | TG (3 h): 66.4 mg/dL | TP (3 h): 5.3 g/dL | gamma-GTP (3 h): 1 IU/L | TERMINAL_BW (6 h): 216.3 g | APTT (6 h): 22.3 s | Bas (6 h): 0% | Eos (6 h): 0.8% | Fbg (6 h): 318.4 mg/dL | Hb (6 h): 13.1 g/dL | Ht (6 h): 39.8% | Lym (6 h): 77.8% | MCH (6 h): 20.8 pg | MCHC (6 h): 32.8% | MCV (6 h): 63.5 fL | Mono (6 h): 3.8% | Neu (6 h): 16.4% | PT (6 h): 15.7 s | Plat (6 h): 115 x10_4/uL | RBC (6 h): 627.8 x10_4/ul | Ret (6 h): 8.7% | WBC (6 h): 87.9 x10_2/uL | KIDNEY_L (6 h): 1 g | KIDNEY_R (6 h): 1 g | KIDNEY_TOTAL (6 h): 2 g | LIVER (6 h): 9.2 g | A/G (6 h): 1.2 | ALP (6 h): 1767.2 IU/L | ALT (6 h): 43.4 IU/L | AST (6 h): 72.8 IU/L | BUN (6 h): 10.8 mg/dL | CRE (6 h): 0.2 mg/dL | Ca (6 h): 10.6 mg/dL | Cl (6 h): 104 meq/L | DBIL (6 h): 0 mg/dL | GLC (6 h): 180 mg/dL | IP (6 h): 10.1 mg/dL | K (6 h): 4.2 meq/L | LDH (6 h): 160.2 IU/L | Na (6 h): 138.2 meq/L | PL (6 h): 140 mg/dL | RALB (6 h): 2.9 g/dL | TBIL (6 h): 0.032 mg/dL | TC (6 h): 75.6 mg/dL | TG (6 h): 50.6 mg/dL | TP (6 h): 5.4 g/dL | gamma-GTP (6 h): 1.2 IU/L | TERMINAL_BW (9 h): 210.5 g | APTT (9 h): 22.3 s | Bas (9 h): 0% | Eos (9 h): 1.2% | Fbg (9 h): 318.4 mg/dL | Hb (9 h): 13.4 g/dL | Ht (9 h): 40.5% | Lym (9 h): 79% | MCH (9 h): 20.8 pg | MCHC (9 h): 33% | MCV (9 h): 62.9 fL | Mono (9 h): 2.6% | Neu (9 h): 15.8% | PT (9 h): 15.6 s | Plat (9 h): 125.3 x10_4/uL | RBC (9 h): 645.4 x10_4/ul | Ret (9 h): 8% | WBC (9 h): 77.8 x10_2/uL | KIDNEY_L (9 h): 1 g | KIDNEY_R (9 h): 1 g | KIDNEY_TOTAL (9 h): 2 g | LIVER (9 h): 8.8 g | A/G (9 h): 1.2 | ALP (9 h): 1386.8 IU/L | ALT (9 h): 33.8 IU/L | AST (9 h): 62.6 IU/L | BUN (9 h): 10 mg/dL | CRE (9 h): 0.2 mg/dL | Ca (9 h): 10.5 mg/dL | Cl (9 h): 105.2 meq/L | DBIL (9 h): 0 mg/dL | GLC (9 h): 174.4 mg/dL | IP (9 h): 9.4 mg/dL | K (9 h): 4.2 meq/L | LDH (9 h): 170.6 IU/L | Na (9 h): 138.8 meq/L | PL (9 h): 136 mg/dL | RALB (9 h): 3 g/dL | TBIL (9 h): 0.03 mg/dL | TC (9 h): 75.2 mg/dL | TG (9 h): 49.8 mg/dL | TP (9 h): 5.5 g/dL | gamma-GTP (9 h): 1.2 IU/L | TERMINAL_BW (24 h): 226.7 g | APTT (24 h): 20.4 s | Bas (24 h): 0% | Eos (24 h): 1% | Fbg (24 h): 319.8 mg/dL | Hb (24 h): 13.7 g/dL | Ht (24 h): 41.1% | Lym (24 h): 85% | MCH (24 h): 21.1 pg | MCHC (24 h): 33.4% | MCV (24 h): 63.3 fL | Mono (24 h): 2.4% | Neu (24 h): 10.8% | PT (24 h): 16 s | Plat (24 h): 117.1 x10_4/uL | RBC (24 h): 649.4 x10_4/ul | Ret (24 h): 7% | WBC (24 h): 88.2 x10_2/uL | KIDNEY_L (24 h): 1 g | KIDNEY_R (24 h): 1 g | KIDNEY_TOTAL (24 h): 2 g | LIVER (24 h): 9.8 g | A/G (24 h): 1.2 | ALP (24 h): 1484 IU/L | ALT (24 h): 37.4 IU/L | AST (24 h): 69.6 IU/L | BUN (24 h): 15.4 mg/dL | CRE (24 h): 0.1 mg/dL | Ca (24 h): 10.4 mg/dL | Cl (24 h): 106.8 meq/L | DBIL (24 h): 0.002 mg/dL | GLC (24 h): 195.4 mg/dL | IP (24 h): 8.1 mg/dL | K (24 h): 4.3 meq/L | LDH (24 h): 174.8 IU/L | Na (24 h): 142 meq/L | PL (24 h): 135.2 mg/dL | RALB (24 h): 2.9 g/dL | TBIL (24 h): 0.016 mg/dL | TC (24 h): 75.2 mg/dL | TG (24 h): 87.6 mg/dL | TP (24 h): 5.4 g/dL | gamma-GTP (24 h): 1.2 IU/L
